Measured values as given in patent US9447100B2, “Substituted pyrazolo[1,5-A] pyrimidines as calcium receptor modulating agents” (Takeda Pharmaceutical Company Limited, priority 2002, dated 2016).

| Compound | melting point [°C] |
| --- | --- |
| CCC(CC)(NC(=O)c1cnn2c1NC(c1ccccc1C)CC2(C)C)c1ccc(Cl)cc1 (stereo not shown) [Example 697, N-(1-(4-chlorophenyl)-1-ethylpropyl)-7,7-dimethyl-5-(2-methylphenyl)-4,5,6,7-tetrahydropyrazolo[1,5-a]pyrimidine-3-carboxamide] | 143 to 145 |
| CCC(CC)(CCC(F)(F)F)NC(=O)c1cnn2c1NC(c1ccccc1)CC2(C)C (stereo not shown) [Example 698, N-(1,1-diethyl-4,4,4-trifluorobutyl)-7,7-dimethyl-5-phenyl-4,5,6,7-tetrahydropyrazolo[1,5-a]pyrimidine-3-carboxamide] | 84 to 85 |
| CCC(CC)(Cc1ccc(Cl)cc1)NC(=O)c1cnn2c1NC(c1ccccc1)CC2(C)C (stereo not shown) [Example 699, N-(1-(4-chlorobenzyl)-1-ethylpropyl)-7,7-dimethyl-5-phenyl-4,5,6,7-tetrahydropyrazolo[1,5-a]pyrimidine-3-carboxamide] | 156 to 157 |
| CCC(CC)(NC(=O)c1cnn2c1NC(c1ccccc1)CC2(C)C)c1ccc(O)cc1 (stereo not shown) [Example 701, N-(1-ethyl-1-(4-hydroxyphenyl)propyl)-7,7-dimethyl-5-phenyl-4,5,6,7-tetrahydropyrazolo[1,5-a]pyrimidine-3-carboxamide] | 152 to 153 |
| CCC(CC)(Cc1ccc(C)cc1)NC(=O)c1cnn2c1NC(c1ccccc1)CC2(C)C (stereo not shown) [Example 703, N-(1-ethyl-1-(4-methylbenzyl)propyl)-7,7-dimethyl-5-phenyl-4,5,6,7-tetrahydropyrazolo[1,5-a]pyrimidine-3-carboxamide] | 150 to 151 |
| CCC(CC)(Cc1ccc(OC)cc1)NC(=O)c1cnn2c1NC(c1ccccc1)CC2(C)C (stereo not shown) [Example 704, N-(1-ethyl-1-(4-methoxybenzyl)propyl)-7,7-dimethyl-5-phenyl-4,5,6,7-tetrahydropyrazolo[1,5-a]pyrimidine-3-carboxamide] | 185 to 186 |
| C=CCc1ccc(C(CC)(CC)NC(=O)c2cnn3c2NC(c2ccccc2)CC3(C)C)cc1 (stereo not shown) [Example 705, N-(1-(4-allylphenyl)-1-ethylpropyl)-7,7-dimethyl-5-phenyl-4,5,6,7-tetrahydropyrazolo[1,5-a]pyrimidine-3-carboxamide] | 147 to 148 |
| CCCc1ccc(C(CC)(CC)NC(=O)c2cnn3c2NC(c2ccccc2)CC3(C)C)cc1 (stereo not shown) [Example 706, N-(1-ethyl-1-(4-propylphenyl)propyl)-7,7-dimethyl-5-phenyl-4,5,6,7-tetrahydropyrazolo[1,5-a]pyrimidine-3-carboxamide] | 177 to 178 |
| CCOc1ccc(C(CC)(CC)NC(=O)c2cnn3c2NC(c2ccccc2)CC3(C)C)cc1 (stereo not shown) [Example 722, N-(1-(4-ethoxyphenyl)-1-ethylpropyl)-7,7-dimethyl-5-phenyl-4,5,6,7-tetrahydropyrazolo[1,5-a]pyrimidine-3-carboxamide] | 141 to 142 |
| CCC(CC)(NC(=O)c1cnn2c1NC(c1ccccc1)CC2(C)C)c1cc(-c2ccc(F)cc2)n(C)n1 (stereo not shown) [Example 726, N-(1-ethyl-1-(5-(4-fluorophenyl)-1-methyl-1H-pyrazol-3-yl)propyl)-7,7-dimethyl-5-phenyl-4,5,6,7-tetrahydropyrazolo[1,5-a]pyrimidine-3-carboxamide] | 218 to 219 |
| CCC(CC)(NC(=O)c1cnn2c1NC(c1ccccc1)CC2(C)C)c1ccc(OC(C)=O)cc1 (stereo not shown) [Example 728, 4-(1-(((7,7-dimethyl-5-phenyl-4,5,6,7-tetrahydropyrazolo[1,5-a]pyrimidin-3-yl)carbonyl)amino)-1-ethylpropyl)phenyl acetate] | 171 to 172 |
| CCC(=O)Oc1ccc(C(CC)(CC)NC(=O)c2cnn3c2NC(c2ccccc2)CC3(C)C)cc1 (stereo not shown) [Example 729, 4-(1-(((7,7-dimethyl-5-phenyl-4,5,6,7-tetrahydropyrazolo[1,5-a]pyrimidin-3-yl)carbonyl)amino)-1-ethylpropyl)phenyl propionate] | 172 to 173 |
| CCOC(=O)COc1ccc(C(CC)(CC)NC(=O)c2cnn3c2NC(c2ccccc2)CC3(C)C)cc1 (stereo not shown) [Example 730, ethyl (4-(1-(((7,7-dimethyl-5-phenyl-4,5,6,7-tetrahydropyrazolo[1,5-a]pyrimidin-3-yl)carbonyl)amino)-1-ethylpropyl)phenoxy)acetate] | 178 to 179 |
| CCC(CC)(NC(=O)c1cnn2c1NC(c1ccccc1)CC2(C)C)c1ccc(OCC(=O)O)cc1 (stereo not shown) [Example 731, (4-(1-(((7,7-dimethyl-5-phenyl-4,5,6,7-tetrahydropyrazolo[1,5-a]pyrimidin-3-yl)carbonyl)amino)-1-ethylpropyl)phenoxy)acetic acid] | 213 to 214 |
| CCC(CC)(NC(=O)c1cnn2c1NC(c1ccccc1)CC2(C)C)c1ccc(C(=O)OC(C)C)cc1 (stereo not shown) [Example 733, isopropyl 4-(1-(((7,7-dimethyl-5-phenyl-4,5,6,7-tetrahydropyrazolo[1,5-a]pyrimidin-3-yl)carbonyl)amino)-1-ethylpropyl)benzoate] | 205 to 206 |
| CCC(CC)(NC(=O)c1cnn2c1NC(c1ccccc1)CC2(C)C)c1ccc(C(=O)O)cc1 (stereo not shown) [Example 734, 4-(1-(((7,7-dimethyl-5-phenyl-4,5,6,7-tetrahydropyrazolo[1,5-a]pyrimidin-3-yl)carbonyl)amino)-1-ethylpropyl)benzoic acid] | 257 to 258 |
| CCC(CC)(NC(=O)c1cnn2c1NC(c1ccccc1)CC2(C)C)c1ccc(COC(C)=O)cc1 (stereo not shown) [Example 737, 4-(1-(((7,7-dimethyl-5-phenyl-4,5,6,7-tetrahydropyrazolo[1,5-a]pyrimidin-3-yl)carbonyl)amino)-1-ethylpropyl)benzyl acetate] | 185 to 186 |
| CCC(CC)(NC(=O)c1cnn2c1NC(c1ccccc1)CC2(C)C)c1ccc(CO)cc1 (stereo not shown) [Example 739, N-(1-ethyl-1-(4-(hydroxymethyl)phenyl)propyl)-7,7-dimethyl-5-phenyl-4,5,6,7-tetrahydropyrazolo[1,5-a]pyrimidine-3-carboxamide] | 178 to 179 |
| CCC(CC)(NC(=O)c1cnn2c1NC(c1ccccc1)CC2(C)C)c1ccc(CCC(=O)OC)cc1 (stereo not shown) [Example 748, methyl 3-(4-(1-(((7,7-dimethyl-5-phenyl-4,5,6,7-tetrahydropyrazolo[1,5-a]pyrimidin-3-yl)carbonyl)amino)-1-ethyl-propyl)phenyl)propanoate] | 147 to 148 |
| CCC(CC)(NC(=O)c1cnn2c1NC(c1ccccc1)CC2(C)C)c1ccc(CCC(=O)O)cc1 (stereo not shown) [Example 749, 3-(4-(1-(((7,7-dimethyl-5-phenyl-4,5,6,7-tetrahydropyrazolo[1,5-a]pyrimidin-3-yl)carbonyl)amino)-1-ethyl-propyl)phenyl)propanoic acid] | 240 to 241 |
| CCCCOC(=O)c1ccc(C(CC)(CC)NC(=O)c2cnn3c2NC(c2ccccc2)CC3(C)C)cc1 (stereo not shown) [Example 757, butyl 4-(1-(((7,7-dimethyl-5-phenyl-4,5,6,7-tetrahydropyrazolo[1,5-a]pyrimidin-3-yl)carbonyl)amino)-1-ethylpropyl)benzoate] | 139 to 140 |
| CCc1nn2c(c1C(=O)NC(CC)(CC)c1ccc(Cl)cc1)NC(c1ccccc1)CC2(C)C (stereo not shown) [Example 758, N-(1-(4-chlorophenyl)-1-ethylpropyl)-2-ethyl-7,7-dimethyl-5-phenyl-4,5,6,7-tetrahydropyrazolo[1,5-a]pyrimidine-3-carboxamide] | 183 to 184 |
